# Source: article PMC5216877, “Exploring conformational equilibria of a heterodimeric ABC transporter” (eLife, 2017)
# Read-outs that look alike come from different tables or passages of the source. Marks after values point to notes of the source that are not given here.
# What was measured:
# [1] = target: T1, TM287/288 (Thermotoga maritima, UniProt Q9WYC3+Q9WYC4, C28S/C496S/C519S/C558S/C73S); test: ATPase activity of detergent-purified wildtype TM287/288 (molybdate/malachite green phosphate detection); format: biochemical; details: for Km: read-out: Km for ATP
# [2] = target: T1, TM287/288; test: Inhibition of ATPase activity of TM287/288 by vanadate and nucleotides; format: biochemical; details: for IC50: 500 µM ATP, read-out: IC50; for Ki: calculated from IC50 and Km, read-out: Ki
# Experimental: Nucleotide binding and hydrolysis follow a complex mechanism in heterodimeric ABC exporters, due to the existence of a degenerate and a consensus site in the NBDs. […] Using the relation IC50=Ki(1+[S]/Km), Ki values for the respective nucleotides were determined (Table 2). […] It is well established that ATPγS is slowly hydrolyzed by ATPases, as for example the F1Fo-ATPase ([Turina and Capaldi, 1994]). […] It is reasonable to assume that TM287/288 is as well capable of slow ATPγS hydrolysis. In addition, we tested whether TM287/288 hydrolyzes AMP-PNP. In contrast to ATPγS, hydrolysis of AMP-PNP releases Pi, which can be detected by the molybdate/malachite green method.
# (§1) in which f corresponds to the ATPase activity at the respective inhibitor concentration divided by the ATPase activity in the absence of inhibitor normalized to 100%, y0 corresponds to the residual activity at infinite inhibitor concentration, a corresponds to the maximal degree of inhibition (a+y0=100%) and x corresponds to the inhibitor concentration.
# (§2) Ki values were calculated according to the formula Ki=IC50/(1+[S]/Km)
# (§3) IC50 and Km values were obtained from data fitting as outlined above.
# (§4) Standard errors for the Ki values were calculated by error propagation: σKi = (Km/Km+[S])^2 σIC502+ ([S]IC50/(Km+[S])^2)^2 σKm2
# (§5) in which the σIC50 and σKm are standard errors obtained from data fitting in SigmaPlot and σKi is the standard error for Ki .
# [3] = target: T2, BmrCD (Bacillus subtilis, UniProt O07549+O07550, C154A/C256A/C351A); test: Inhibition of ATPase activity of BmrCD by nucleotide analogs; format: biochemical; details: BmrCD, 25°C
# T2 construct: made in house; host or cells: E. coli MC1061
# T2 sequence (O07550 whole entry): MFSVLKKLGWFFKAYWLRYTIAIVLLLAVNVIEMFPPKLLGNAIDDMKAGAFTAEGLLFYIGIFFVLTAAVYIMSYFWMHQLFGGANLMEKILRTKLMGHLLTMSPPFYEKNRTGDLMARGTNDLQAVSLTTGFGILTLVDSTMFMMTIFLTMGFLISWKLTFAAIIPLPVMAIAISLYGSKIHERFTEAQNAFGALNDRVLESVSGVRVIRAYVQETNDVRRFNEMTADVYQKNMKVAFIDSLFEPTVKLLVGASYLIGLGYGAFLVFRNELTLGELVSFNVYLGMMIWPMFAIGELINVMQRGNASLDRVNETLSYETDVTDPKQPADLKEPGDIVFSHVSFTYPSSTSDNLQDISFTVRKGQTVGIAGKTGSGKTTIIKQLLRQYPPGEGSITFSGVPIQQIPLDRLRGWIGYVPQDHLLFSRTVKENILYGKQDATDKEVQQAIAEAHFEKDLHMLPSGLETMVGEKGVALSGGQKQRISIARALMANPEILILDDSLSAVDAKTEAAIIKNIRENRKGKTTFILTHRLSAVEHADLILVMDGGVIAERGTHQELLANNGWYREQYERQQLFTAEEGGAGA
# T2 sequence (O07549 whole entry C154A/C256A/C351A): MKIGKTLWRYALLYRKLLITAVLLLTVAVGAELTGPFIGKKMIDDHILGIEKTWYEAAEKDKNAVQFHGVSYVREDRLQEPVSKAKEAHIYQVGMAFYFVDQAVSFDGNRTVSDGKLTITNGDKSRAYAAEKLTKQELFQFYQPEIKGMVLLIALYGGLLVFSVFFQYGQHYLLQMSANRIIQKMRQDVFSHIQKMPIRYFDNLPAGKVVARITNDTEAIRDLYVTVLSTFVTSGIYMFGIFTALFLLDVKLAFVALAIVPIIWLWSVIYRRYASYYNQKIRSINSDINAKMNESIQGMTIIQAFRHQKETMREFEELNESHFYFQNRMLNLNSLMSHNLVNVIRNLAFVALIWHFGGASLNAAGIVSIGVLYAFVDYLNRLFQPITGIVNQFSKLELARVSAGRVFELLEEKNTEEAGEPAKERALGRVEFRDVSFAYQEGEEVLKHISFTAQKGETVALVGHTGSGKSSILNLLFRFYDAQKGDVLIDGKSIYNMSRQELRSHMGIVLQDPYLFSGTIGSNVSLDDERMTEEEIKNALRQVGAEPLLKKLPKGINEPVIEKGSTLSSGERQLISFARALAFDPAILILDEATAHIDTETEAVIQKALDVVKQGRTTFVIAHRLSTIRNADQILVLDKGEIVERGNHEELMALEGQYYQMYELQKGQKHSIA
# Experimental: as §1, §2, §3, §4, §5
# [4] = test system: TM287/288; test: DEER two-Gaussian fit of IF/OF populations, wildtype TM287/288; parameters: species or system Thermotoga maritima; details: estimated errors 10%
# Experimental: (§6) All nucleotides and nucleotide analogs used in this study were added at saturating conditions well above their Ki values (Table 2). […] Therefore, the IF/OF fractions detected in the sample reflect the average life time that the nucleotide-bound transporter spends in either conformation. To rank the nucleotides in terms of their ability to support the transition to the OF conformation, we used three representative pairs in the wildtype transporter and the E-to-Q mutant: one in the extracellular region (50^TM287/271^TM287), one in the intracellular region (131^TM288/248^TM288) of the TMDs, and one in the NBDs (460^TM287/363^TM288) for which the distance peaks corresponding to the two states were distinguishable. A two-Gaussian fit of the DEER traces was performed to obtain the area of the corresponding IF and OF distance peaks (Figure 5—source data 1). The rank of nucleotides with respect to increasing fractions of the OF populations (Figure 5A) was: ADP-Mg ≈ AMP-PNP-Mg < ATP-EDTA < ATPγS-Mg < ATP-Mg < ATP-Vi-Mg. The order is similar for the wildtype and E-to-Q mutant transporter. However, the OF state is in general more populated in the E-to-Q mutant, which is best explained by an alteration of the energy profile caused by the mutation. This notion is best appreciated for ATP-EDTA and ATP-Mg, which could trigger an almost complete switch in the molecular ensemble of the E-to-Q mutant (Figure 5B).
# (§7) The labeling efficiency of the double cysteine mutants of the transporters solubilized in detergent was measured at 25°C using an X-band Miniscope 400 EPR spectrometer (Magnettech by Freiberg Instrument). Samples were loaded into glass capillaries with the inner diameter of 0.9 mm and spectra were measured with 14 mT field sweep, 0.15 mT modulation amplitude, 2.5 mW microwave power. The calculated spin labeling efficiencies of the twelve mutants ranged between 70–90% (the second integral of the EPR spectra was calculated with the software available at spintoolbox.com). The high degree of labeling is correlated with the 0.3–0.4 modulation depths of all Q-band DEER traces presented. For DEER measurements, 10% v/v D8- glycerol was added prior to snap freezing. The range of final protein concentrations was 12 to 41 µM. 40 µL of sample were loaded in quartz tubes with 3 mm outer diameter. If not stated differently, samples were incubated at 25°C for 10 min (TM287/288 and MsbA) or 15 min (BmrCD) and snap frozen in liquid nitrogen. To study the effect of high physiological temperatures on the frozen dynamics of the transporter, samples were loaded in the quartz tubes, incubated for 3 min at 80°C on a heat block and snap frozen in a mixture of isopentane and liquid nitrogen to minimize the freezing time. […] The nucleotide analogs AMP-PNP-Mg and ATPγS-Mg (2.5 mM) were also prepared in the presence of 2.5 mM MgCl2. In case of ADP-Mg, 2.5 mM ADP and 2.5 mM MgCl2 were added.
# (§8) Double electron-electron resonance (DEER) measurements were performed at 50 K on a Bruker ELEXSYS E580Q-AWG (arbitrary wave generator) dedicated pulse Q-band spectrometer equipped with a 150 W TWT amplifier. A 4-pulse DEER sequence with rectangular, non-selective observer and pump pulses of 14 or 16 ns length (depending on the available B1 at the sample) with 100 MHz frequency separation was used ([Polyhach et al., 2012]). Due to the coherent nature of the AWG generated pulses, a four-step phase cycling (0 – π/2 - π – 3/2π) of the pump π pulse was performed to remove unwanted effects of running echoes from the DEER trace. The evaluation of the DEER data was performed using DeerAnalysis2015 ([Jeschke et al., 2006]). The background of the primary DEER traces was corrected using stretched exponential functions with homogeneous dimensions of 1.5 to 3 for different samples. A model-free Tikhonov regularization was used to extract distance distributions from the background corrected form factors. […]
# [5] = test system: TM287/288 E517Q; test: DEER two-Gaussian fit of IF/OF populations, E-to-Q mutant of TM287/288; parameters: species or system Thermotoga maritima; details: estimated errors 10%
# Experimental: as §6, §7, §8
# [6] = test system: MsbA; parameters: method as in Moeller et al., 2015; details: single particle EM; ref Moeller et al., 2015; cited from earlier work
# [7] = test system: TM287/288_E517Q^TM288; test: Residual ATPase activity of E-to-Q mutant of TM287/288 in detergent; format: biochemical, Thermotoga maritima; details: E-to-Q mutant of TM287/288, 25°C
# Experimental: (§9) Incubation with buffers containing the same nucleotide concentration without protein served for background subtraction in these assays.
# [8] = target: T2, BmrCD; test: ATPase activity of detergent-purified wildtype BmrCD; format: biochemical; details: 25°C
# [9] = target: T3, BmrCD_E592Q^BmrD (Bacillus subtilis, UniProt O07549+O07550, C154A/C256A/C351A/E592Q); test: Residual ATPase activity of E-to-Q mutant of BmrCD in detergent; format: biochemical; details: 25°C
# T3 construct: made in house; host or cells: E. coli MC1061
# T3 sequence (O07550 whole entry): as the sequence (O07550 whole entry) above
# T3 sequence (O07549 whole entry C154A/C256A/C351A/E592Q): as the sequence (O07549 whole entry C154A/C256A/C351A) above, with E592Q counted along it
# Experimental: as §9
# [10] = test system: MsbA; test: ATPase activity of detergent-purified MsbA; details: ATP-Mg, 30°C
# [11] = test system: Spin-labeled TM287/288; test: ATPase activity of spin-labeled TM287/288 mutants in detergent; details: 50°C, relative to internal wildtype control
# [12] = wildtype TM287/288, AMP-PNP-Mg as nucleotide, 25°C [sic], detergent
# [13] = spin-labeled pair 50^TM287-271^TM287 WT
# [14] = spin-labeled pair 131^TM288-248^TM288 WT
# [15] = spin-labeled pair 460^TM287-363^TM288 WT
# [16] = spin-labeled pair 50^TM287-271^TM287 E517Q
# [17] = spin-labeled pair 131^TM288-248^TM288 E517Q
# [18] = spin-labeled pair 460^TM287-363^TM288 E517Q
# [19] = wildtype TM287/288, ATP-Mg, 25°C, detergent
# [20] = wildtype TM287/288, ATP-Mg, 50°C, detergent
# [21] = wildtype BmrCD, ATP-Mg, detergent
# [22] = BmrCD E592Q^BmrD, ATP-Mg, detergent
structure (smiles),measurement,setting,value
Nc1ncnc2c1ncn2[C@@H]1O[C@H](COP(=O)(O)OP(=O)(O)NP(=O)(O)O)[C@@H](O)[C@H]1O [AMP-PNP],cleavage of AMP-PNP (sensitivity of assay),"[1]; wildtype TM287/288, AMP-PNP as nucleotide",< 0.01 Pi min^−1
same,ATPase activity (hydrolysis of AMP-PNP),[1]; [12],<0.1 nmol Pi/min/mg protein
same,"ATPase activity, % of wildtype (hydrolysis of AMP-PNP)",[1]; [12],<0.005%
same,Turnover per transporter (hydrolysis of AMP-PNP),[1]; [12],<0.01 min⁻¹
same,IC50,"[2]; TM287/288, 25°C",179 ± 75 µM
same,Ki,"[2]; TM287/288, 25°C",1.17 ± 0.51 µM
same,IC50,"[2]; TM287/288, 50°C",16.1 ± 1.6 µM
same,Ki,"[2]; TM287/288, 50°C",0.246 ± 0.042 µM
same,IC50,"[3]; 2500 µM ATP, read-out: IC50",174 ± 24 µM
same,Ki,"[3]; calculated from IC50 and Km, read-out: Ki",21 ± 3.2 µM
same,IF frac,[4]; [13],85.4%
same,OF frac,[4]; [13],14.6%
same,IF frac,[4]; [14],100%
same,OF frac,[4]; [14],0%
same,IF frac,[4]; [15],90.7%
same,OF frac,[4]; [15],9.3%
same,IF frac,[5]; [16],64.9%
same,OF frac,[5]; [16],35.1%
same,IF frac,[5]; [17],100%
same,OF frac,[5]; [17],0%
same,IF frac,[5]; [18],65.8%
same,OF frac,[5]; [18],34.2%
same,fraction of outward-facing MsbA,[6],41%
Nc1ncnc2c1ncn2[C@@H]1O[C@H](COP(=O)(O)OP(=O)(O)OP(=O)(O)O)[C@@H](O)[C@H]1O [ATP],Km,"[1]; TM287/288, 25°C",3.27 ± 0.42 µM
same,Km,"[1]; TM287/288, 50°C",7.78 ± 1.1 µM
same,turnover rate,"[1]; wildtype TM287/288, ATP-Mg, 25°C",11 ATP min^−1
same,ATPase activity,[1]; [19],86.1 ± 2.5 nmol Pi/min/mg protein
same,Turnover per transporter,[1]; [19],11.4 min⁻¹
same,ATPase activity,[1]; [20],2141 ± 67 nmol Pi/min/mg protein
same,Turnover per transporter,[1]; [20],284 min⁻¹
same,ATPase turnover rate,[7],0.022 ATP min^−1
same,Km,"[8]; read-out: Km for ATP, BmrCD",343 ± 24 µM
same,ATPase activity,[8]; [21],22.9 ± 0.5 nmol Pi/min/mg protein
same,Turnover per transporter,[8]; [21],3.24 min⁻¹
same,ATPase activity,[9]; [22],0.633 ± 0.053 nmol Pi/min/mg protein
same,"ATPase activity, % of wildtype",[9]; [22],2.76%
same,Turnover per transporter,[9]; [22],0.0896 min⁻¹
same,turnover rate,[9]; BmrCD carrying the E-to-Q mutation,0.09 ATP min^−1
same,IF frac,[4]; [13],36.7%
same,OF frac,[4]; [13],63.3%
same,IF frac,[4]; [14],56.8%
same,OF frac,[4]; [14],43.2%
same,IF frac,[4]; [15],25.7%
same,OF frac,[4]; [15],74.3%
same,IF frac,[5]; [16],5.79%
same,OF frac,[5]; [16],94.21%
same,IF frac,[5]; [17],24.9%
same,OF frac,[5]; [17],75.1%
same,IF frac,[5]; [18],13%
same,OF frac,[5]; [18],87%
same,"ATPase activity, % of wildtype",[10]; MsbA 561^MsbA,90.4%
same,Turnover per transporter,[10]; MsbA 561^MsbA,16.6 min⁻¹
same,ATPase activity,[10]; wildtype MsbA,135 ± 9 nmol Pi/min/mg protein
same,Turnover per transporter,[10]; wildtype MsbA,18.4 min⁻¹
same,"ATPase activity, % of wildtype","[11]; spin-labeled 131^TM288/248^TM288, ATP-Mg",156* %
same,"ATPase activity, % of wildtype","[11]; spin-labeled 150^TM287/295^TM288, ATP-Mg",112* %
same,"ATPase activity, % of wildtype","[11]; spin-labeled 231^TM287/304^TM287, ATP-Mg",146* %
same,"ATPase activity, % of wildtype","[11]; spin-labeled 350^TM287/475^TM288, ATP-Mg",193* %
same,"ATPase activity, % of wildtype","[11]; spin-labeled 460^TM287/363^TM288, ATP-Mg",212* %
